Data as given in patent US9289383B2, “Method of reducing intraocular pressure in humans” (Inotek Pharmaceuticals Corporation, priority 2010, dated 2016).
Read-outs that look alike come from different tables or passages of the source.

Experiments:
[1] = In-vitro cornea permeability study (vertical diffusion apparatus); assay type: in vitro ADME, rabbit; conditions: for CPA levels detected on the other side of the cornea membrane (receiver chamber): compound applied to donor side of rabbit cornea membrane, GBR buffer pH 7.4, 37° C.; for cornea permeability: topical delivery to cornea
Procedure: The compounds (2a) and (2g) were prepared in powder form by Inotek Pharmaceuticals Corp. (Lexington, Mass.). Low-permeability control compound atenolol and all other chemicals were purchased from Sigma (St. Louis, Mo.). The buffer used in the permeability assessment was a glutathione-bicarbonated Ringer's (GBR) solution (110 mM NaCl, 5 mM KCl, 1 mM NaH2PO4, 30 mM NaHCO3, 1 mM CaCl2, 0.75 mM Mg Cl2, 5 mM D-glucose, and 0.3 mM reduced glutathione), pH 7.4, which was freshly prepared on the day of the experiment and oxygenated with O2/CO2 (95:5) to pH 7.4.
The compounds (2a) and (2g) were reconstituted in saline and diluted (10-fold) into the assay at a final concentration between 50 μM and 2.6 mM. Male Dutch-belted pigmented rabbits (1.5-2.5 kg body weight, 3-3.5 months old) were purchased from Covance Research Products Inc. (Denver, Pa.). The animal handling performed in this study conformed to the Guiding Principles in the Care and Use of Animals (DHEW Publication, NIH 80-23). The rabbits were euthanized by CO2 asphyxiation, and the heads were transported on ice to a testing facility, where dissection of the eyes was performed.
The corneal tissues were excised and mounted on a Harvard vertical diffusion apparatus as shown in FIG. 3 with a diffusion area of 0.64 cm2. Preheated (37° C.), pH 7.4. GBR buffer was added to the mucosal (1.5 mL) and the serosal (1.5 mL) chambers. The diffusion apparatus was maintained at 37° C. throughout the entire transport experiment. Oxygenation and agitation were achieved by bubbling O2/CO2 (95:5) through each chamber at a rate of 5-6 bubbles per second. After the 30-minute equilibration, blank GBR buffer in the mucosal (donor) chamber was withdrawn and replaced with GBR assay buffer containing the compound (2a) or the compound (2g). The transport experiments lasted 2 hours and were performed in duplicate. Every 60 minutes, 0.2-mL samples were collected from the serosal (receiver) chamber and replenished with 0.2-mL blank GBR buffer, except at the last time point; at the end of the experiment, samples were also collected from the mucosal (donor) chambers for mass balance determination.
After the transport experiment, tissue integrity (system suitability) was assessed by measuring the permeation of a low permeability control compound, atenolol, across the tissue. Donor chamber contents were replaced with GBR buffer containing 100μM atenolol, and receiver chambers were replaced with fresh blank GBR buffer. After 30 minutes of incubation, samples were collected from both chambers for analysis. The post-experimental system suitability assessment was considered acceptable if duplicate measurements yielded a mean apparent permeability (Papp) value for atenolol <1·10^−6 cm/s.
Compound A and compounds (2a) and (2g) and atenolol concentrations in the donor and receiver chambers were analyzed by LC-MS/MS methods. Apparent permeability (Papp) values were calculated using the following equation: Papp=(dCr/dt)·Vr/(A·C0)
Where, dCr /dt was the slope of the linear portion of the cumulative concentration in the receiver compartment over time in μM/sec, Vr was the volume of the receiver chamber in cm^3, A was the diffusion area in cm^2, and C0 was the measured dosing concentration in μM.
Recovery was calculated using the following equation: Recovery=100·([…])/(Vd·C0)
Where, Vr was the volume of the receiver compartment in cm^3, Vd was the volume of the donor compartment in cm^3, C0 was the dosing concentration in μM, Cr^final was the cumulative receiver concentration in μM and Cd^final was the donor concentration in μM at the end of the incubation.

[2] = In vivo study of CPA concentration in the anterior chamber after topical administration to the cornea; conditions: Dutch Belted rabbits, topical to the cornea (FIG. 4)
intraocular pressure [3] = conditions: topical in DMSO, three mice, cited from earlier work
intraocular pressure [4] = conditions: CPA 165 μg; cited from earlier work
[5] = test system: optic nerve head tissue blood flow; conditions: 10 nmol, injected intravitreally, rabbits; cited from earlier work
intraocular pressure [6] = assay: IOP of human subjects after topical administration of Compound A to the cornea; assay type: in vivo
Description: As a result of this analysis, CPA has been identified as an active metabolite in clinical studies after the topical administration of Compound A to the cornea of human subjects.

[7] = Analysis of human plasma after topical administration of Compound A; assay type: in vivo; conditions: human subject, topical to the cornea, LC/MS/MS
Procedure: After the administration of Compound A topically to a cornea of a human, at selected time points (e.g., Day 1: pre-dose, 5, 15, 25, 35. and 45 min and 1, 2, 4, 8 and 24 hours) samples of whole blood (10 mL) were collected for pharmacokinetic assessments using a vacutainer tube containing sodium heparin as an anticoagulant, via catheter, saline lock, or by venipuncture. The blood components were separated by centrifugation at 4° C. following standard clinical laboratory procedures for preparation of plasma from whole blood (e.g., 3000 rpm for approximately 10 min). For each sample, approximately 1 mL of plasma was stored at −20° C. or colder until analysis for Compound A and CPA concentration. Human plasma samples were analyzed for Compound A concentrations using a validated liquid chromatography/tandem mass spectrometry (LC/MS/MS) method with a lower limit of quantitation (LLOQ) of 10.0 pg/mL and a linear range from 10.0 to 2000 pg/mL. Plasma concentrations of (N(6)-cyclopentyladenosine, CPA) were also measured in some samples using a validated LC/MS/MS method with a lower limit of quantitation of 10.0 pg/mL and a linear range from 10.0 to 2000 pg/mL.

cornea permeability [1]	CPA in plasma after administration of Compound A [7]	Structure (SMILES)	CPA levels detected on the other side of the cornea membrane (receiver chamber) [1]	concentration of CPA in the anterior chamber over time [2]	change in IOP (intraocular pressure [3]; CPA at 100 nM) [mm Hg]	change in IOP (intraocular pressure [3]; CPA at 1 mM) [mm Hg]	effect on rabbit IOP (intraocular pressure [4])	optic nerve head tissue blood flow [5]	IOP course after buildup of CPA in plasma (intraocular pressure [6])	transient elevation in IOP (intraocular pressure [6])
significant cornea permeability	–	CC(C)C(=O)OC[C@H]1O[C@@H](n2cnc3c(NC4CCCC4)ncnc32)[C@H](O)[C@@H]1O [Compound 2a, N^6-Cyclopentyl-5′-O-isobutyryl-adenosine]	significant levels of CPA were measureable	–	–	–	–	–	–	–
significant cornea permeability	–	CCCCCCCC(=O)OC[C@H]1O[C@@H](n2cnc3c(NC4CCCC4)ncnc32)[C@H](O)[C@@H]1O [Compound 2g, N^6-Cyclopentyl-5′-O-octanoyl-adenosine]	significant levels of CPA were measureable	–	–	–	–	–	–	–
–	detection of CPA in the plasma	O=[N+]([O-])OC[C@H]1O[C@@H](n2cnc3c(NC4CCCC4)ncnc32)[C@H](O)[C@@H]1O [Compound A, ((2R,3S,4R,5R)-5-(6-(cyclopentylamino)-9H-purin-9-yl)-3,4-dihydroxytetrahydrofuran-2-yl)methyl nitrate]	significant levels of CPA on the other side of the cornea membrane	build up in concentration of CPA in the anterior chamber over time	–	–	–	–	continues to decline	no transient elevation in IOP is seen

Structure (SMILES)	cornea permeability [1]	CPA in plasma after administration of Compound A [7]	CPA levels detected on the other side of the cornea membrane (receiver chamber) [1]	concentration of CPA in the anterior chamber over time [2]	change in IOP (intraocular pressure [3]; CPA at 100 nM) [mm Hg]	change in IOP (intraocular pressure [3]; CPA at 1 mM) [mm Hg]	effect on rabbit IOP (intraocular pressure [4])	optic nerve head tissue blood flow [5]	IOP course after buildup of CPA in plasma (intraocular pressure [6])	transient elevation in IOP (intraocular pressure [6])
OC[C@H]1O[C@@H](n2cnc3c(NC4CCCC4)ncnc32)[C@H](O)[C@@H]1O [CPA, N^6-cyclopentyladenosine]	does not have sufficient cornea permeability	–	much less than that detected when Compound A is topically applied to the cornea	build up in concentration of CPA in the anterior chamber over time	−6.8	−1.0	reduction of rabbit IOP	increased the optic nerve head tissue blood flow	–	–
